Columns and labels:
[1] = test system: H727 lung cancer cell lines, which contain a G12V K-Ras mutation; assay: Inhibition of cancer cell proliferation (CellTiter-Glo, 3 days); format: cell-based; details: Homo sapiens, NCI-H727, 72 h, H727 cells, 3 days at 37° C., normalized to DMSO control, read-out: Cell proliferation activity (H727 cancer cell line proliferation IC50)
Description: C. Inhibition of Cancer Cell Proliferation
Compounds of the present invention were measured for their ability to kill H727 lung cancer cell lines, which contain a G12V K-Ras mutation. Cell proliferation experiments were conducted in 96-well plates. Cells were plated at 1000 cells/well, incubated overnight, followed by treatment with a dose range of compound for 3 days at 37° C. Cell proliferation was assessed using a CellTiter-Glo assay (Promega) according to the manufacturer's protocol. Data were normalized to DMSO control. IC50 values were determined using a four-parameter dose-response (variable slope) equation. These assays are performed in a manner analogous to the assay disclosed in: Burns, M. C.; Sun, Q.; Daniels, R. N.; Camper, D. V.; Kennedy, J. P.; Phan, J.; Olejniczak, E. O.; Lee, T.; Waterson, A. G.; Rossanese, O. W.; Fesik, S. W. “Approach for targeting Ras with small molecules that activate SOS-mediated nucleotide exchange” Proc. Natl. Acad. Sci. 2014; 11(9): 3401-3406. PMCID: PMC3948241.

[2] = molecular target: T1, SOS-mediated nucleotide exchange on Ras (Homo sapiens, UniProt Q07889); assay: SOS-mediated nucleotide exchange on Ras (BODIPY-GDP fluorescence); format: biochemical; details: Ras loaded with BODIPY-GDP, GTP and SOS added; EC50 from derived exchange rates
T1 sequence (Q07889 1-1333): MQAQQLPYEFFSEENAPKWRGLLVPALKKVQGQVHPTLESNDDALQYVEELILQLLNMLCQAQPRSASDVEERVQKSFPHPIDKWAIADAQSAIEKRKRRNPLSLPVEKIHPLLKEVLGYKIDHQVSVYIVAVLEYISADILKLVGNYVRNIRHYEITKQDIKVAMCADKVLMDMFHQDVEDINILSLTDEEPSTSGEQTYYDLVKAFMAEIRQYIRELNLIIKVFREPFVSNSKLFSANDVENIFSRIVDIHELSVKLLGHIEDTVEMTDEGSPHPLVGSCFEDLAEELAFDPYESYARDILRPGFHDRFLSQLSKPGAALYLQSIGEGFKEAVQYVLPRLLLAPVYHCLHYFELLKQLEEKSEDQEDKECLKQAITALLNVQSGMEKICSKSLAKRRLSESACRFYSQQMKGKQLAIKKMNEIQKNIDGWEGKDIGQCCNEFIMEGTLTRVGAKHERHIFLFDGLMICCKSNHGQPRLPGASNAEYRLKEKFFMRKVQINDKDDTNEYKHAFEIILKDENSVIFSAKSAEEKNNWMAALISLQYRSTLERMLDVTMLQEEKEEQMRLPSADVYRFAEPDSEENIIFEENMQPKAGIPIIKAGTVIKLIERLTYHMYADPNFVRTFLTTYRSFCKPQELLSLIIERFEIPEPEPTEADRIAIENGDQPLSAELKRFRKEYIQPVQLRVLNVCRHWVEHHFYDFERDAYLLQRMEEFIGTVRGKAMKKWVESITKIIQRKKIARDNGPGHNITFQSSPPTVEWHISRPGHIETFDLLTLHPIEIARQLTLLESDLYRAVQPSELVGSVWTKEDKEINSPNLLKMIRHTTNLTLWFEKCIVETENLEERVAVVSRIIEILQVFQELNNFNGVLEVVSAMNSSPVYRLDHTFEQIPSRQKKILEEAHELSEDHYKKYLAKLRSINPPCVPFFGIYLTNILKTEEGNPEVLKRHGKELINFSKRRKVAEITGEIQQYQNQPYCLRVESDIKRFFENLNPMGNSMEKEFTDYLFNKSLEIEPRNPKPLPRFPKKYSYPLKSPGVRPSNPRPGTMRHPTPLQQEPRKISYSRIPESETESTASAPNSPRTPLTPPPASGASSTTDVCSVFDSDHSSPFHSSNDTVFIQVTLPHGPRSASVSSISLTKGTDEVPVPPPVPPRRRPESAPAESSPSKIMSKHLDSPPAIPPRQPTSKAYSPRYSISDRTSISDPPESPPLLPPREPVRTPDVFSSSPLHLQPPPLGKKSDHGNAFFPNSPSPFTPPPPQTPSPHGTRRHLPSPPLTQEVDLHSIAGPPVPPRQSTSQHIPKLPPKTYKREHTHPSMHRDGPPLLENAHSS
Method in brief: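 Compound, then GTP and SOS, were added to buffered Ras preloaded with BODIPY-GDP, and the fluorescence change from labeled GDP being exchanged for GTP was followed over time. Rates came from single-exponential fits, and EC50 from a four-parameter fit of mean rate against compound concentration.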

[3] = molecular target: T2, Son of Sevenless (SOS) (Homo sapiens, UniProt Q07889); assay: Binding to SOS, fluorescence polarization anisotropy (FPA) displacement of FITC-conjugated probe; details: binding affinity calculated from IC50 of FITC-probe displacement, read-out: Binding affinities (binding affinity to SOS)
T2 sequence (Q07889 564-1049 limits assumed): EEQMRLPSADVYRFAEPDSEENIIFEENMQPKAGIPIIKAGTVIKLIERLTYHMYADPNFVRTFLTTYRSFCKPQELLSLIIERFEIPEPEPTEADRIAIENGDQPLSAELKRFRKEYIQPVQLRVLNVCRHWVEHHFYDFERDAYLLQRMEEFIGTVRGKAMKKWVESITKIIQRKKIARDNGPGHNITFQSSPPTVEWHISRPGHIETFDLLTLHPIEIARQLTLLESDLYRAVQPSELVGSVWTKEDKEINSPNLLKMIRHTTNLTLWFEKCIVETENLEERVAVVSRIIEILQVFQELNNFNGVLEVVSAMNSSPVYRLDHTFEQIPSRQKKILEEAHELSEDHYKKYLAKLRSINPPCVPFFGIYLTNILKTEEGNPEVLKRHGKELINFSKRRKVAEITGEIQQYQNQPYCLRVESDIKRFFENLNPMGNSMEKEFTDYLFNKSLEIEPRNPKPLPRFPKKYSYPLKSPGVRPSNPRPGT
Method in brief: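 FITC-labelled probe incubated with SOS in buffer; displacement by test compound across a dose range read as fluorescence anisotropy change. IC50 from four-parameter variable-slope fit, binding affinity calculated from IC50.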

EC50 [2] [µM] | Ki [3] [µM] | Structure (SMILES) | IC50 [1] [µM]
> 30 | > 5 | Fc1cc(F)cc(Nc2nc(NCc3ncc[nH]3)c3ccccc3n2)c1 [Example 22, N^4-((1H-imidazol-2-yl)methyl)-N^2-(3,5-difluorophenyl)quinazoline-2,4-diamine] | > 20
5 to 30 | > 5 | C[C@@H](Nc1nc(Nc2ccc(F)c(Cl)c2)nc2c(CNC(=N)N)cccc12)C1CC1 [Example 59, (R)-1-((2-((3-chloro-4-fluorophenyl)amino)-4-((1-cyclopropylethyl)amino)quinazolin-8-yl)methyl)guanidine] | 5 to 20
1 to 5 | 1 to 5 | CC[C@@H](Nc1nc(Nc2ccc(F)c(Cl)c2)nc2c(N3CCNCC3)cccc12)C1CC1 [Example 64, (R)—N^2-(3-chloro-4-fluorophenyl)-N^4-(1-cyclopropylpropyl)-8-(piperazin-1-yl)quinazoline-2,4-diamine] | < 1
1 to 5 | – | C[C@@H](Nc1nc(Nc2cc(F)cc(F)c2)nc2ccc(CCN)cc12)C1CC1 [Example 109, (R)-6-(2-aminoethyl)-N^4-(1-cyclopropylethyl)-N^2-(3,5-difluorophenyl)quinazoline-2,4-diamine] | < 1
5 to 30 | – | C[C@@H](Nc1nc(Cc2cc(F)cc(F)c2)nc2ccccc12)C1CC1 [Example 110, (R)—N-(1-cyclopropylethyl)-2-(3,5-difluorobenzyl)quinazolin-4-amine] | 5 to 20

Second part, the compound before the results:

Structure (SMILES) | EC50 [2] [µM] | Ki [3] [µM] | IC50 [1] [µM]
C[C@@H](Nc1nc(Nc2ccc(F)c(Cl)c2)nc2ccccc12)C1CC1 [Example 1, (R)—N^2-(3-chloro-4-fluorophenyl)-N^4-(1-cyclopropylethyl)quinazoline-2,4-diamine] | 5 to 30 | – | 1 to 5
C[C@@H](Nc1nc(NCC2CCCCCC2)nc2ccccc12)C1CC1 [Example 5, (R)—N^2-(cycloheptylmethyl)-N^4-(1-cyclopropylethyl)quinazoline-2,4-diamine] | 5 to 30 | > 5 | 1 to 5
CC[C@@H](Nc1nc(Nc2ccc(F)c(Cl)c2)nc2ccccc12)c1cccs1 [Example 39, (R)—N^2-(3-chloro-4-fluorophenyl)-N^4-(1-(thiophen-2-yl)propyl)quinazoline-2,4-diamine] | 1 to 5 | > 5 | 5 to 20
CC[C@@H](Nc1nc(Nc2ccc(F)c(Cl)c2)nc2c(CCN)cccc12)C1CC1 [Example 50, (R)-8-(2-aminoethyl)-N^2-(3-chloro-4-fluorophenyl)-N^4-(1-cyclopropylpropyl)quinazoline-2,4-diamine] | 1 to 5 | – | 1 to 5
CC[C@@H](Nc1nc(Nc2ccc(F)c(Cl)c2)nc2c(C3=CCNCC3)cccc12)C1CC1 [Example 51, (R)—N^2-(3-chloro-4-fluorophenyl)-N^4-(1-cyclopropylpropyl)-8-(1,2,3,6-tetrahydropyridin-4-yl)quinazoline-2,4-diamine] | 1 to 5 | < 1 | < 1
C[C@@H](Nc1nc(Nc2ccc(F)c(Cl)c2)nc2c(C(=N)N)cccc12)C1CC1 [Example 57, (R)-2-((3-chloro-4-fluorophenyl)amino)-4-((1-cyclopropylethyl)amino)quinazoline-8-carboximidamide] | 1 to 5 | > 5 | 1 to 5
CNCc1cccc2c(N[C@H](C)C3CC3)nc(Nc3ccc(F)c(Cl)c3)nc12 [Example 58, (R)—N^2-(3-chloro-4-fluorophenyl)-N^4-(1-cyclopropylethyl)-8-((methylamino)methyl)quinazoline-2,4-diamine] | 5 to 30 | > 5 | 1 to 5
CC[C@@H](Nc1nc(Nc2ccc(F)c(Cl)c2)nc2c(C3=CCNCC3)cccc12)c1cccs1 [Example 100, (R)—N^2-(3-chloro-4-fluorophenyl)-8-(1,2,3,6-tetrahydropyridin-4-yl)-N^4-(1-(thiophen-2-yl)propyl)quinazoline-2,4-diamine] | 5 to 30 | – | < 1

From US11318137B2, “Quinazoline compounds as modulators of Ras signaling” (VANDERBILT UNIVERSITY, priority 2017, dated 2022)
